Measurements reported in patent US5338684A, “Stable aqueous FK506 standards” (Abbott Laboratories, priority 1993, dated 1994).

Key:
[1] = assay type: physicochemical, human
Description: This example illustrates the utilization of blood cell fragments according to the invention to stabilize FK506 in an aqueous matrix. Human blood cells were lysed by sonication or by repetitive freeze-thaw cycles respectively. Lysis was judged complete by the absence of blood cells under microscopic examination. Except for the utilization of lysed human blood cells instead of whole blood cells, the FK506 standards were prepared in the same manner as in Example 1 above.

[2] = assay type: physicochemical, sheep
Description: (§1) This example illustrates the suitability of non-human blood sources for a composition of the invention. In this example both sheep blood (non-lysed as in Example 1 above and containing the anti-coagulant citrate) and horse blood (lysed by freeze-thaw cycles as in Example 2 above and containing the anti-coagulant EDTA) were utilized. FK506 standards were made in each matrix and stability was evaluated at 37 degrees Celsius as described above.

[3] = assay type: physicochemical, horse
Description: as §1

[4] = assay type: physicochemical, human; remark: listed apart in the source
Description: This example illustrates the preparation of an aqueous composition of the invention utilizing whole human blood containing the anticoagulant, ethylenediamine tetraacetic acid (EDTA). It also illustrates a comparison of the stability of FK506 in the aqueous composition of the invention with the stability of FK506 in a synthetic blood matrix (prepared by adding hemoglobin to human serum) and with the stability of FK506 in plasma and serum
A synthetic blood matrix was prepared by adding hemoglobin (10 grams/deciliter) to human serum. A stock standard of FK506 in methanol (10 micrograms FK506/ml) was spiked into this synthetic matrix to provide two initial concentrations of 32.2 nanograms FK506/ml (ng/ml)(high) and 7.5 ng/ml (low). A composition of the invention was prepared by adding the stock standard of FK506 in methanol (10 micrograms FK506/ml) into human whole blood (containing sufficient EDTA to prevent coagulation ) to provide two initial concentrations of 47.1 ng/ml (high) and 9.3 ng/ml (low). The stability of these two different matrices was evaluated by placing the four different standards at 37 degrees Celsius and determining the concentration of FK506 present as a function of time.

[5] = system: monoclonal antibody directed against FK506 (Fujisawa clone #1-60-46); assay: Microparticle capture enzyme immunoassay (MEIA) for FK506, competitive with FK506-alkaline phosphatase conjugate; assay type: binding; settings: pH 6.0
Description: In general an analyte such as FK506 is determined in an MEIA by quantifying the rate of fluorescence development when a fluorogenic substrate is converted by the action of an enzyme-labeled conjugate. MEIAs as run on the IMx® analyzer generally utilize a reagent pack containing microparticle reagent, an alkaline phosphatase conjugate, fluorogenic substrate and, optionally, a diluent buffer specific for the FK506 assay. Submicron microparticles coated with a capture molecule specific for FK506 being measured are used as the solid phase. […] The effective surface area of these polystyrene latex microparticles, which number in the millions, is several-fold greater than that of a 1/4 inch diameter polystyrene bead commonly used in other commercial immunoassays. Because of this large surface area and the very small diffusion distance between analyte and the capture molecules on the surface of the microparticles, the capture phase of the MEIA typically reaches equilibrium within several minutes, allowing excellent throughput.
Unlike homogeneous fluorescent polarization immunoassays, the heterogeneous MEIA requires a separation step. After incubation of the microparticles with specimen, the microparticles are separated from the reaction mixture by transferring it to an inert glass fiber matrix in the MEIA reaction cell. This glass fiber surface provides a precisely located mechanical support for the microparticles during the subsequent optical read phase of the assay. The microparticles and bound analyte adhere strongly to the glass fibers, while the remaining specimen components are washed through the pores of the matrix to an underlying absorbent blotter. Detection of the immune complex on the glass fiber matrix is accomplished using an alkaline phosphatase-labeled conjugate. Conjugate is either incubated with the specimen and microparticles in a typical one step IMx® MEIA or applied to the matrix after the initial wash step. It is contemplated that an MEIA for FK506 run on the IMx® analyzer can be configured either in a "sandwich" or competitive assay format. […]
In either configuration, the specifically bound alkaline phosphatase on the microparticles is detected by addition of a fluorogenic substrate, typically 4-methylumbelliferyl phosphate (4-MUP), to the matrix. […] The liberated 4-MU is detected by the IMx® MEIA optics assembly, a front surface fluorometer designed to detect fluorescence of low concentrations of 4-MU without interference by fluorescence of 4-MUP at 367 nanometers (nm). A system of lenses and optical filters focuses filtered light (365 nm wavelength) from a mercury arc lamp onto the surface of the matrix and focuses emitted fluorescence from 4-MU (448 nm wavelength) onto a photomultiplier tube. About 5% of the excitation light is detected by a photodiode, allowing normalization of the fluorescence data and generation of a control signal used by the lamp power supply to maintain the intensity of the excitation light within 5% over the useful life of the lamp. The instrument then uses linear regression analysis to convert the data from 8 successive determinations of 4-MU fluorescence to a rate, which rate is proportional to the concentration of alkaline phosphatase conjugate specifically bound to the microparticles, from which the concentration of FK506 in the sample can be determined. […]

[6] = assay type: physicochemical
Text: Whole blood has the undesirable characteristic of thickening at elevated temperatures. Thickened blood can be difficult or impossible to pipet which can make a blood matrix completely unsuitable as a standard for a diagnostic assay.
Whole blood (plus sufficient EDTA to prevent coagulation) was lysed by freeze-thaw cycles and diluted with saline so as to be at final saline concentrations of 10, 20 and 30 percent by volume. FK506 in methanol was spiked into the matrix to make standards and the stability was evaluated at 37 degrees Celsius as described above.

[7] = assay type: physicochemical; remark: listed apart in the source
Description: FK506 was spiked into plasma and serum and the stability at 37 degrees Celsius was evaluated as for human blood and the synthetic matrix above. The plasma contained sufficient EDTA as anti-coagulant to prevent coagulation.
Comparative plasma and serum matrices were prepared by adding a stock standard of FK506 in methanol (10 micrograms FK506/ml) to the plasma and serum matrices to provide two initial concentrations of 41.8 ng/ml (high) and 18.4 ng/ml (low) for the plasma and two initial concentrations of 44.9 ng/ml (high) and 22.4 ng/ml (low) for the serum. As for the human blood and synthetic matrix above, the stability of these two different matrices was evaluated by placing the four different standards at 37 degrees Celsius and determining the concentration of FK506 present as a function of time.

[8] = assay type: physicochemical, human; remark: listed apart in the source
Text: This example illustrates the utilization of human packed red blood cells (with EDTA as anticoagulant) and saline in an aqueous, FK506-containing composition of the invention. It also illustrates the enhanced stability of FK506 in this composition of the invention compared to the stability of FK506 in comparative serum and plasma compositions.
Human packed red blood cells (with sufficient EDTA added to prevent coagulation) were mixed in equal parts by volume with saline (0.9 percent by weight sodium chloride solution), human plasma or human serum. Three freeze-thaw cycles were done on each matrix combination to lyse the cells. The pH on each matrix was adjusted to pH 6.0 with 3 Molar (M) citric acid. FK506 standards were made in each matrix and stability at […] was evaluated as described above.

[9] = assay type: physicochemical; remark: listed apart in the source
Text: The stability of the composition can be determined by measuring the decrease in the measured amount of FK506 in the aqueous composition with time. […] In a composition of the invention useful as a standard for a diagnostic assay, generally the amount of FK506 initially present in the aqueous composition maintained at a temperature of 37 degrees Celsius will decrease over a period of 7 days by less than 20 percent by weight, and typically by less than 5 percent by weight

[10] = aqueous blood cell composition, 168 h

In the case of `C=CC[C@@H]1/C=C(\C)C[C@H](C)C[C@H](OC)[C@H]2O[C@@](O)(C(=O)C(=O)N3CCCC[C@H]3C(=O)O[C@H](/C(C)=C/[C@@H]3CC[C@@H](O)[C@H](OC)C3)[C@H](C)[C@@H](O)CC1=O)[C@H](C)C[C@@H]2OC` [FK506], the “stability in lysed blood” value [1] is reported as “more stable at 45 degrees Celsius than FK506 standards in serum, plasma or synthetic blood at 37 degrees Celsius”, the “stability in sheep blood” value [2] is reported as “excellent stability” and the “stability in horse blood” value [3] is reported as “excellent stability”. The “stability in blood vs synthetic matrix” value [4] was “much more stable in blood than in the synthetic matrix”, the “Fluorescent Rate” value ([5]; 10 ng/ml FK506 in lysed human whole blood) was 288 and the “Fluorescent Rate” value ([5]; 20 ng/ml FK506 in lysed human whole blood) was 197. For the same molecule, the “Fluorescent Rate” value ([5]; 30 ng/ml FK506 in lysed human whole blood) was 150, the “Fluorescent Rate” value ([5]; 50 ng/ml FK506 in lysed human whole blood) was 111 and the “Fluorescent Rate” value ([5]; 80 ng/ml FK506 in lysed human whole blood) was 79. For the same molecule, the “stability in saline-diluted lysed blood” value [6] was “good stability”, the “stability in plasma” value [7] was “very unstable in plasma and serum” and the “stability in serum” value [7] was “very unstable in plasma and serum”. For the same molecule, the “stability in packed red cell matrices” value [8] was “more stable in any of them relative to serum, plasma or synthetic blood matrices”, the “most stable matrix” value ([8]; saline vs plasma or serum dilution, 45 degrees Celsius) was “the most stable matrix was blood diluted with saline” and the “stability at acidic pH” value [9] was “enhanced somewhat at acidic pH”. For the same molecule, the “stability in aqueous matrices” value [9] was “unstable”, the “decrease of the amount of FK506 initially present, generally” value [9, 10] was “less than 20 percent by weight” and the “decrease of the amount of FK506 initially present, typically” value [9, 10] was “less than 5 percent by weight”.
